SMILES strings stand for the structures.

This assay deals with T1, FmtA^Δ80 (Staphylococcus aureus, UniProt O50608).
T1 sequence (O50608 81-397): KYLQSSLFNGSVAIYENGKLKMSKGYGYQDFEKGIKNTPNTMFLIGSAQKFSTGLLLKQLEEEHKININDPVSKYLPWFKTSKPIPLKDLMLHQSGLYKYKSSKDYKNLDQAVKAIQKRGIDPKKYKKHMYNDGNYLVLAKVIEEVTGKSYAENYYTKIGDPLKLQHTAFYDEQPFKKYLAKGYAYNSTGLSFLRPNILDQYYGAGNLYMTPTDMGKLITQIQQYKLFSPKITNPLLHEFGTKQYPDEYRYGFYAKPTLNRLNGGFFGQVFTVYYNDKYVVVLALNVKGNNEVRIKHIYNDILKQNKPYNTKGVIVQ
Briefly: isothermal titration calorimetry, one-site model. Format: binding.
Take `CO/N=C1\CN(c2nc3c(cc2F)c(=O)c(C(=O)O)cn3C2CC2)CC1CN` (stereo not shown) [gemifloxacin]: the affinity, expressed as Kd, was 1.7 µM.
Take `NC[C@@H]1O[C@H](O[C@H]2[C@@H](O)[C@H](O[C@@H]3[C@@H](O)[C@H](N)C[C@H](N)[C@H]3O[C@H]3O[C@H](CO)[C@@H](O)[C@H](O)[C@H]3N)O[C@@H]2CO)[C@H](N)[C@@H](O)[C@@H]1O` [paromomycin]: the affinity, expressed as Kd, was 8.56 µM.
The value for `[H]/N=C(/N)N[C@H]1[C@H](O)[C@@H](O)[C@H](O[C@@H]2O[C@@H](C)[C@](O)(C=O)[C@H]2O[C@@H]2O[C@@H](CO)[C@H](O)[C@@H](O)[C@@H]2NC)[C@@H](N/C(N)=N\[H])[C@@H]1O` [streptomycin] was 11.1 µM; that for `NC[C@H]1O[C@H](O[C@H]2[C@H](O)[C@@H](O[C@H]3O[C@H](CO)[C@@H](O)[C@H](N)[C@H]3O)[C@H](N)C[C@@H]2N)[C@H](N)C[C@@H]1O` [tobramycin] was 25.8 µM.

Source of the values: paper PMC9631409 (ACS Omega, 2022).
